Read-outs that look alike come from different tables or passages of the source.
Experiments:
CDK6 = target: T1, CDK6 (Homo sapiens, UniProt Q00534); test: In vitro kinase inhibition IC50, luminescence (ADP Glo), retinoblastoma substrate; type: biochemical; details: read-out: CDK6/D1 IC50
T1 construct: purchased Invitrogen PR8422B
In short: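 Recombinant CDK6 (5 nM) with retinoblastoma substrate (1 μM) and 25 μM ATP, compound at final 0.1–200 nM, incubated 2 h at room temperature. ADP formed detected by ADP-Glo luminescence. IC50 from four-parameter logistic fit of percent inhibition.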

CDK4 = target: T2, CDK4 (Homo sapiens, UniProt P11802); test: as above; type: biochemical; details: read-out: CDK4/D1 IC50
T2 construct: purchased Invitrogen PR8064A
T2 sequence (P11802 whole entry): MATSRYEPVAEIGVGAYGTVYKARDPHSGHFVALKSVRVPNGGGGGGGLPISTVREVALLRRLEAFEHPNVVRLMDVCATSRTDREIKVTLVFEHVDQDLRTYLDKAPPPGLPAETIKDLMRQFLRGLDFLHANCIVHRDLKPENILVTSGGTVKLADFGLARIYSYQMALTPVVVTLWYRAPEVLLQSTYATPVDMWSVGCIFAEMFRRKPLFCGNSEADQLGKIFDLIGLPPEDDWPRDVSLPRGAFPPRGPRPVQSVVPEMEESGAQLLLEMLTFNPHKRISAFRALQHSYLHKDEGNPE
T2 sequence (P24385 whole entry partner): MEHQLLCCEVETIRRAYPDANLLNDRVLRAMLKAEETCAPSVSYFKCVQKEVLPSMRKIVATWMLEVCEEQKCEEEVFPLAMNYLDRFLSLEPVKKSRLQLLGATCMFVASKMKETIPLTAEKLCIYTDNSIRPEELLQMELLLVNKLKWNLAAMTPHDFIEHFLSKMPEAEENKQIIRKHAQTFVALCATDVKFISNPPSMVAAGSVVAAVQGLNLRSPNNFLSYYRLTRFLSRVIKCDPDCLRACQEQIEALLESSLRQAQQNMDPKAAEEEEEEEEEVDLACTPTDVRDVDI
In short: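 CDK4 enzyme (5 nM, Invitrogen) was combined with test compound and a mix of retinoblastoma substrate (1 μM) plus ATP (25 μM) in kinase buffer, 30 μL/well in 96-well half area white plates. After 2H at room temperature, ADP Glo reagent stopped the reaction for 45 min, then detection reagent was added and luminescence was read.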

CDK1 (cyclin B) = target: T3, CDK1 (cyclin B) (Homo sapiens, UniProt P06493); test: Z'-LYTE kinase assay; type: biochemical
T3 construct: purchased Invitrogen Life Technologies (assay service)
T3 sequence (P06493 whole entry): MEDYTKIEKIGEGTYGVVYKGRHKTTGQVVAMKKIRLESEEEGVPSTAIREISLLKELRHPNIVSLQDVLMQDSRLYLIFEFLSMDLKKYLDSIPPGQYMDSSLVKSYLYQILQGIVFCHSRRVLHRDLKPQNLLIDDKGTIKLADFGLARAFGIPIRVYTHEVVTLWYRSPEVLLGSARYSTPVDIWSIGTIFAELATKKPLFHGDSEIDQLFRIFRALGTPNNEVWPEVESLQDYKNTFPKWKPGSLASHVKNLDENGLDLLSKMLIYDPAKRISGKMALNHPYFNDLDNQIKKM
T3 sequence (P14635 whole entry partner): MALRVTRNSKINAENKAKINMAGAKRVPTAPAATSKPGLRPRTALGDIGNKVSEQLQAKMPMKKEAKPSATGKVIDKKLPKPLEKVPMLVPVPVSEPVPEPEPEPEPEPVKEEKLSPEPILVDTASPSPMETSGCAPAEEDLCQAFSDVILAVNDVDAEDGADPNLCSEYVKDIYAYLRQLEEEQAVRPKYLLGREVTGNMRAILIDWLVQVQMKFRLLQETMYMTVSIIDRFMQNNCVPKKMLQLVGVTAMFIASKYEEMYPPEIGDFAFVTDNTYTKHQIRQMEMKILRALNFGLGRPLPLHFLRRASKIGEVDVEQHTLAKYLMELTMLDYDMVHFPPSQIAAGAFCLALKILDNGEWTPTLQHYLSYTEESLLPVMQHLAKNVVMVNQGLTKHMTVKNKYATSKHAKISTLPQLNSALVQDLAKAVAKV
Protocol: The plates were shaken for 30 seconds, and incubated for 60 minutes at room temperature. […] The plates were read on fluorescence plate reader with Dual emission at 445 nm and 520 nm.
The following equations were used for Z′-LYTE™ Screening Assay Data Analysis.

CDK2 (cyclin A) = target: T4, CDK2 (cyclin A) (Homo sapiens, UniProt P24941); test: Z'-LYTE kinase assay; type: biochemical
T4 construct: purchased Invitrogen Life Technologies (assay service)
Protocol: IC50 values of compounds against CDK2 (cyclin A) were determined by Z′-LYTE™ These screening assays were performed at Invitrogen Life Technologies (Grand Island, N.Y.) on a low volume NBS, black 384-well plate (#4514, Corning). 0.1 μL of 100×test compound in 100% DMSO (at specific solutions) was mixed with 2.4 μL of Kinase Buffer (50 mM HEPES pH 7.5, 0.01% BRIJ-35, 10 mM MgCl2, 1 mM EGTA), 5 μL of 2× Kinase (1.22-10.3 ng CDK2/cyclin A)/Peptide (2 μM Ser/Thr 12), and 2.5 μL of 4×ATP solution (31 μM). The plates were shaken for 30 seconds, and incubated for 60 minutes at room temperature. Development Reagent Solution (5 μL of 1:1024 dilution) was added to the plates followed with another 30-second plate shake and the plates were further incubated at room temperature for one hour. The plates were read on fluorescence plate reader with Dual emission at 445 nm and 520 nm.
The following equations were used for Z′-LYTE™ Screening Assay Data Analysis. Percent inhibition (100-% activity) was fitted to the “four-parameter logistic model” in XLfit for determination of IC50 values.

[1] = tested on: DU4475 breast carcinoma cells; test: Cancer cell proliferation assay, single agent (cell viability); type: cell-based; details: Homo sapiens, DU-4475; Table 4; Rb negative; treatment 144 Hr with medium change at 72 Hr; Cell Titer-Glo or resazurin
In short: (§1)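 Cells seeded day 1, then exposed on day 2 to 7–9 compound concentrations (e.g. 1.1 nM–10 μM); BT-549 for 24 h, MCF-7 and DU4475 for 144 h with medium change at 72 h. Viability by CellTiter-Glo or resazurin; IC50 from variable-slope sigmoidal fit.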

[2] = tested on: MCF-7 breast adenocarcinoma cells; test: as above; type: cell-based; details: Homo sapiens, MCF7, Table 4; Rb positive; treatment 144 Hr with medium change at 72 Hr; Cell Titer-Glo or resazurin
In short: as §1

T1 sequence (Q00534 whole entry): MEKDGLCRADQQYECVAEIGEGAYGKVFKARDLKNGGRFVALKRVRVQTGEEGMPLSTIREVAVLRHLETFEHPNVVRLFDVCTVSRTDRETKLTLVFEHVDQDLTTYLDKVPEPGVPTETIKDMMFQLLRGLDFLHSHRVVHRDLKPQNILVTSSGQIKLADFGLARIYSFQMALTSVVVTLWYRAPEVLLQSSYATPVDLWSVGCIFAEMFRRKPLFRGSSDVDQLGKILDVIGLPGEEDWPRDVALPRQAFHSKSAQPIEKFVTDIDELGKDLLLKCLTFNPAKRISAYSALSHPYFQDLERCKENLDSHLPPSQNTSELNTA
T1 sequence (P24385 whole entry partner): as the sequence (P24385 whole entry partner) above

IC50 (CDK6) [µM]	IC50 (CDK4) [µM]	IC50 (CDK1 (cyclin B)) [µM]	IC50 (CDK2 (cyclin A)) [µM]	IC50 [1] [µM]	IC50 [2] [µM]	IC50 (CDK1 (cyclin B); read-out: CDK1/B IC50) [µM]	Compound
0.054	0.098	–	2.78	4.48	2.73	> 5	N#Cc1cc2cnc(Nc3ccc4c(n3)CCNC4)nc2n(C2CCCC2)c1=O [Compound No. 61, 8-cyclopentyl-7-oxo-2-((5,6,7,8-tetrahydro-1,6-naphthyridin-2-yl)amino)-7,8-dihydropyrido[2,3-d]pyrimidine-6-carbonitrile]
0.004	0.011	–	0.19	1.44	0.266	0.655	CN(C)CCN1CCc2cc(Nc3ncc4cc(C#N)c(=O)n(C5CCCC5)c4n3)ccc2C1 [Compound No. 63, 8-cyclopentyl-2-((2-(2-(dimethylamino)ethyl)-1,2,3,4-tetrahydroisoquinolin-6-yl)amino)-7-oxo-7,8-dihydropyrido[2,3-d]pyrimidine-6-carbonitrile]
0.015	0.017	–	0.169	1.99	0.569	0.791	N#Cc1cc2cnc(Nc3ccc4c(c3)CN(CCN)CC4)nc2n(C2CCCC2)c1=O [Compound No. 65, 2-((2-(2-aminoethyl)-1,2,3,4-tetrahydroisoquinolin-7-yl)amino)-8-cyclopentyl-7-oxo-7,8-dihydropyrido[2,3-d]pyrimidine-6-carbonitrile]
0.007	0.012	–	0.252	1.69	1.99	0.683	N#Cc1cc2cnc(Nc3ccc4c(c3)CCN(CC(N)=O)C4)nc2n(C2CCCC2)c1=O [Compound No. 69, 2-(6-((6-cyano-8-cyclopentyl-7-oxo-7,8-dihydropyrido[2,3-d]pyrimidin-2-yl)amino)-3,4-dihydroisoquinolin-2(1H)-yl)acetamide]
0.006	0.012	–	0.027	1.18	0.818	0.354	N#Cc1cc2cnc(Nc3ccc4c(c3)CCN(C(=O)CO)C4)nc2n(C2CCCC2)c1=O [Compound No. 70, 8-cyclopentyl-2-((2-(2-hydroxyacetyl)-1,2,3,4-tetrahydroisoquinolin-6-yl)amino)-7-oxo-7,8-dihydropyrido[2,3-d]pyrimidine-6-carbonitrile]
0.062	0.029	–	0.475	5.66	0.77	0.735	N#Cc1cc2cnc(NC3CCCC3O)nc2n(C2CCCC2)c1=O (stereo not shown) [Compound No. 349, 8-cyclopentyl-2-((2-hydroxycyclopentyl)amino)-7-oxo-7,8-dihydropyrido[2,3-d]pyrimidine-6-carbonitrile]
0.047	0.124	–	0.242	1.23	0.445	2.73	N#Cc1cc2cnc(Nc3ccc4c(c3)CCNC4)nc2n(C23CC(C2)C3)c1=O [Compound No. 370, 8-(bicyclo[1.1.1]pentan-1-yl)-7-oxo-2-((1,2,3,4-tetrahydroisoquinolin-6-yl)amino)-7,8-dihydropyrido[2,3-d]pyrimidine-6-carbonitrile]

Further lines, the molecule ahead of its results:

Compound	IC50 (CDK6) [µM]	IC50 (CDK4) [µM]	IC50 (CDK1 (cyclin B)) [µM]	IC50 (CDK2 (cyclin A)) [µM]	IC50 [1] [µM]	IC50 [2] [µM]	IC50 (CDK1 (cyclin B); read-out: CDK1/B IC50) [µM]
Cn1ccc(S(=O)(=O)N2CCC(Nc3ncc4cc(C(F)F)c(=O)n([C@@H]5C[C@H]6CC[C@@H]5C6)c4n3)CC2)n1 [Compound 396, 8-((1R,2R,4S)-bicyclo[2.2.1]heptan-2-yl)-6-(difluoromethyl)-2-((1-((1-methyl-1H-pyrazol-3-yl)sulfonyl)piperidin-4-yl)amino)pyrido[2,3-d]pyrimidin-7(8H)-one]	0.007	0.017	0.1	0.014	–	–	–
CS(=O)(=O)N1CCC(Nc2cc3c(cn2)cc(C#N)c(=O)n3C2CCCC2)CC1 [Compound No. 303, 1-cyclopentyl-7-((1-(methylsulfonyl)piperidin-4-yl)amino)-2-oxo-1,2-dihydro-1,6-naphthyridine-3-carbonitrile]	0.003	0.003	–	0.0045	0.71	0.66	0.097
CC(C)S(=O)(=O)N1CCC(Nc2ncc3cc(C#N)c(=O)n(C4CCCC4)c3n2)CC1 [Compound No. 355, 8-cyclopentyl-2-((1-(isopropylsulfonyl)piperidin-4-yl)amino)-7-oxo-7,8-dihydropyrido[2,3-d]pyrimidine-6-carbonitrile]	0.008	0.0065	0.362	0.02	1.52	0.495	–
CS(=O)(=O)N1CCC(Nc2ncc3cc(C#N)c(=O)n(C45CC(C4)C5)c3n2)CC1 [Compound No. 369, 8-(bicyclo[1.1.1]pentan-1-yl)-2-((1-(methylsulfonyl)piperidin-4-yl)amino)-7-oxo-7,8-dihydropyrido[2,3-d]pyrimidine-6-carbonitrile]	0.0055	0.007	–	0.007	0.67	0.107	0.087
N#Cc1cc2cnc(NC3CCN(S(=O)(=O)C(F)(F)F)CC3)nc2n(C2CCCC2)c1=O [Compound No. 371, 8-cyclopentyl-7-oxo-2-((1-((trifluoromethyl)sulfonyl)piperidin-4-yl)amino)-7,8-dihydropyrido[2,3-d]pyrimidine-6-carbonitrile]	0.025	0.014	–	3.41	2.6	0.515	> 5
CS(=O)(=O)N1CCC(Nc2ncc3cc(C4CC4)c(=O)n(C4CCCC4)c3n2)CC1 [Compound No. 379, 8-cyclopentyl-6-cyclopropyl-2-((1-(methylsulfonyl)piperidin-4-yl)amino)pyrido[2,3-d]pyrimidin-7(8H)-one]	0.067	0.016	–	0.434	4.73	1.22	> 3.62
C[C@@]1(O)CCC[C@H]1n1c(=O)c(C#N)cc2cnc(NC3CCN(S(C)(=O)=O)CC3)nc21 [Compound No. 380, 8-((1R,2R)-2-hydroxy-2-methylcyclopentyl)-2-(1-(methylsulfonyl)piperidin-4-ylamino)-7-oxo-7,8-dihydropyrido[2,3-d]pyrimidine-6-carbonitrile]	0.015	0.03	–	0.0055	0.715	1.22	0.055
CCCCCc1ccc(S(=O)(=O)N2CCC(Nc3ncc4cc(C#N)c(=O)n(C5CCCC5)c4n3)CC2)cc1 [Compound No. 381, 8-cyclopentyl-7-oxo-2-(1-(4-pentylphenylsulfonyl)piperidin-4-ylamino)-7,8-dihydropyrido[2,3-d]pyrimidine-6-carbonitrile]	0.12	> 0.2	–	0.057	> 10	0.743	> 3.57
CCCCCCc1ccc(S(=O)(=O)N2CCC(Nc3ncc4cc(C#N)c(=O)n(C5CCCC5)c4n3)CC2)cc1 [Compound No. 382, 8-cyclopentyl-2-(1-(4-hexylphenylsulfonyl)piperidin-4-ylamino)-7-oxo-7,8-dihydropyrido[2,3-d] pyrimidine-6-carbonitrile]	> 0.2	> 0.2	–	0.209	> 10	1.84	> 4.86

From patent publication US20220273659A1, “HETEROCYCLIC COMPOUNDS AS KINASE INHIBITORS” (NUVATION BIO INC., priority 2019, published 2022)
